Test results: patent publication US12551460B2, “Methods and compositions comprising cationic lipids for stimulating type 1 interferon genes” (PDS BIOTECHNOLOGY COPORATION, priority 2017, dated 2026)
Entries after “also recorded” stand apart in the source; their conditions may differ.

What was measured:
type I interferon genes [1] = experiment: IFNα and IFNβ gene expression in popliteal draining lymph nodes (Taqman gene expression assay, RT-PCR); type: in vivo, C57BL/6J mice; conditions: 50 μl of 6 mM nanoparticles s.c. foot pads; popliteal DLN; 3 h or 24 h
Procedure: The data in FIG. 2 corresponds to an experiment wherein C57BL/6J mice (n=2) were injected with 50 μl of 6 mM R-DOTAP or S-DOTAP nanoparticles subcutaneously in the foot pads. Mice injected with PBS, and LPS (50 μg/mouse) (24 h time point) were used as negative and positive controls respectively. 3 h or 24 hr after injection, popliteal draining lymph nodes from each mouse were pooled and lysed in RLT buffer and processed for relative gene expression analysis using Taqman gene expression assay and RT-PCR.
RNA isolation, Nano string Analysis, and gene expression assay: For gene expression analysis, draining popliteal lymph nodes (n=4) were enzymatically digested using cell dissociation cocktail for 60 min at 37° C., and single cell suspensions were used to sort CD11c+ ells using Sony SY3200 cell sorter. Sort purified CD11c+ cells (25K cells) were lysed in Qiagen's RLT cell lysis buffer (Qiagen, USA) and total RNA was isolated using Qiagen total RNA isolation kit (Qiagen, USA). […] Binding of mRNA was detected with Nanso String nCounter analysis system, and raw count data was normalized and statistically analyzed using SAS program by UK genomics core laboratory. For confirmation studies using RT-PCR, the lymph nodes were directly lysed in RLT cell lysis buffer, and the total isolation RNA was reverse transcribed to cDNA using QuantiTect reverses transcription kit (Qiagen, USA). […]

CD69 = CD69 expression on CD3+ T cells in draining lymph nodes (flow cytometry); type: in vivo, C57BL/6J mice or IFNAR−/− mice; conditions: 24 hr
Procedure: (§1) The data in FIG. 3 corresponds to an experiment wherein A) C57BL/6J mice (n=3) were injected with 50 μl of 6 mM R-DOTAP or 280 mM Sucrose subcutaneously in the foot pads. At indicated times popliteal draining lymph nodes from each mouse were isolated and single suspensions of lymph nodes were enumerated using hemocytometer to obtain total cell numbers. B) C57BL/6J (n=3) or IFNAR−/− (n=3) mice were injected with 50 μl of 6 mM R-DOTAP or 280 mM sucrose in the foot pad and draining popliteal lymph nodes were harvested from each mouse and enzymatically digested lymph nodes were assessed for the total cell number at 24 hr (B) using hemocytometer and expression of CD69 on CD3+ T cells (B) was assessed using flowcytometry. A-B) data represent total number of cells in each draining lymph node. C) Data represent percent CD69+ cells each group 24 hr after vaccination (n=3 mice per group).
IFN reporter cell assay and Cell phenotypic analysis: For detecting IFN, the supernatants from type I IFN producing cells were added to B16-Blue™ IFN-α/β Cells in a 96 well plate. After 24 hr incubation, the supernatants were assayed for SEAP activity using QUANTI-Blue™ reagent (InvivoGen, USA) according to manufacturer's instructions. Briefly, 50 μl of cell supernatants containing SEAP was mixed with 150 μl QUANTI-Blue™ reagent and incubated for 3-4 hr at 37° C. and absorbance was measured at 650 nm using a spectrometer. The concentrations of type I IFN in test samples were quantified using a standard curve generated from recombinant type I IFNβ treated B16-Blue™ IFN-α/β Cells in the same assay. To measure CD69 expression, single cell suspensions of lymph nodes were stained with fluorochrome conjugated CD3, and CD69 and percent CD69+CD3+ T cells in each draining lymph node were measured using flowcytometry.
To further understand the effect and ability of cationic lipids to activate the type I interferons, C57BL/6J mice or IFNAR−/− mice were injected with 50 μl of 6 mM R-DOTAP nanoparticles or 6 mM S-DOTAP or 280 mM sucrose subcutaneously in the foot pads. […]

type I interferon genes [2] = experiment: Inflammatory gene expression in sorted CD11c+ cells of draining lymph nodes (nCounter mouse inflammation kit, nanostring); type: in vivo, C57BL/6J mice
Procedure: The data in FIG. 1 corresponds to an experiment wherein C57BL/6J mice (n=4) were injected with 100 μl of 12 mM R-DOTAP liposome nanoparticles subcutaneously behind the neck. Mice injected with PBS, and LPS (50 μg/mouse) (24 h time point) were used as negative and positive controls respectively. 4 h or 24 hr after injection, axillary and brachial draining lymph nodes from each mouse were pooled and processed by collagenase digestion. CD11c positive cells (˜20,000 cells) in these lymph node cell suspensions were sort-purified and lysed in RLT buffer and processed for relative gene expression analysis using nCounter® mouse inflammation kit and nanostring technologies.
RNA isolation, Nano string Analysis, and gene expression assay: For gene expression analysis, draining popliteal lymph nodes (n=4) were enzymatically digested using cell dissociation cocktail for 60 min at 37° C., and single cell suspensions were used to sort CD11c+ ells using Sony SY3200 cell sorter. Sort purified CD11c+ cells (25K cells) were lysed in Qiagen's RLT cell lysis buffer (Qiagen, USA) and total RNA was isolated using Qiagen total RNA isolation kit (Qiagen, USA). Total RNA obtained was sent to University of Kentucky genomics core laboratory (Lexington, KY) where total RNA was mixed with Ncounter™ mouse inflammation panel (Nano String Technologies, Seattle, WA) which can measure over 547 genes involved in immune response. Binding of mRNA was detected with Nanso String nCounter analysis system, and raw count data was normalized and statistically analyzed using SAS program by UK genomics core laboratory. For confirmation studies using RT-PCR, the lymph nodes were directly lysed in RLT cell lysis buffer, and the total isolation RNA was reverse transcribed to cDNA using QuantiTect reverses transcription kit (Qiagen, USA). The cDNA was then amplified using TaqMan gene expression system (Applied biosystems, USA) to detect and quantify mouse IFNα and IFNβ transcripts relative to GAPDH expression using quantitative PCR reaction.
To assess cationic nanoparticle induced gene expression, C57BL/6J mice were injected with 100 μl of 12 mM R-DOTAP nanoparticles subcutaneously behind the neck, and inflammatory gene expression in draining lymph nodes analyzed 4 or 24 hours post vaccination. Mice injected with PBS, and LPS (50 μg/mouse) (24 h time point) were used as negative and positive controls respectively. 4 h or 24 hr after injection, axillary and brachial draining lymph nodes from each mouse were pooled and processed by collagenase digestion. Activated dendritic cells (CD11c^+) cells in the lymph node cell suspensions were sort-purified and lysed in RLT buffer and processed for relative gene expression analysis using nCounter® mouse inflammation kit and nanostring technologies.

draining lymph nodes = experiment: Cell recruitment: size and total cell number of draining lymph nodes; type: in vivo, C57BL/6J mice or IFNAR−/− mice
Procedure: as §1
To further understand the effect and ability of cationic lipids to activate the type I interferons, C57BL/6J mice or IFNAR−/− mice were injected with 50 μl of 6 mM R-DOTAP nanoparticles or 6 mM S-DOTAP or 280 mM sucrose subcutaneously in the foot pads. 24 hr after injection, popliteal draining lymph nodes from each mouse were isolated and single cell suspensions of lymph nodes were stained with fluorochrome conjugated CD3 and CD69. […] Type I IFN is known to inhibit lymphocyte egress from lymphoid organs through the up-regulation of CD69 which, in turn, inhibits the sphingosine 1 phosphate receptor required for lymphocyte egress. We therefore postulated that injection of both S-DOTAP and R-DOTAP would result in the upregulation of CD69 in the DLN. […] The data represents % CD69+CD3+ T cells in each draining lymph node.

[3] = wild type mice, 50 μl of 6 mM s.c. foot pads

Q: Which “Type I interferon (IFNα, IFNβ) gene expression, RT-PCR” value (type I interferon genes [1]) does the source give for CCCCCCCC/C=C\CCCCCCCC(=O)OCC(C[N+](C)(C)C)OC(=O)CCCCCCC/C=C\CCCCCCCC (stereo not drawn) [S-DOTAP, 1,2-dioleoyl-3-trimethyl ammonium-propane] here?
A: strong inducers; also recorded: up-regulation

Q: What about the “CD69 expression in DLN T cells” value (CD69; [3]) of the same compound?
A: up-regulation of CD69 most strongly in T cells

Q: How did the “Expression of IFN-1α and IFN-1β, increase relative to LPS positive control” value (type I interferon genes [2]; 100 μl of 12 mM nanoparticles s.c. behind the neck, CD11c+ cells of axillary and brachial DLN, 4 or 24 h, LPS 50 μg/mouse) turn out when CCCCCCCC/C=C\CCCCCCCC(=O)OC[C@@H](C[N+](C)(C)C)OC(=O)CCCCCCC/C=C\CCCCCCCC [R-DOTAP, (R)-1,2-dioleoyl-3-trimethylammonium propane] was run?
A: greater than 5 fold

Q: What about the “Expression of several inflammatory genes” value (type I interferon genes [2]; 100 μl of 12 mM s.c., both time points (4 h, 24 h)) of the same compound?
A: significantly alter

Q: What about the “Expression of other genes including Cxc110” value (type I interferon genes [2]; 100 μl of 12 mM s.c., compared with LPS) of the same compound?
A: significantly increased and more comparable to levels induced by LPS

Q: And the “Type I interferon gene expression (nanostring)” value (type I interferon genes [2]; FIG. 1, mean of 4 mice)?
A: up-regulation

Q: What about the “Type I interferon (IFNα, IFNβ) gene expression, RT-PCR” value (type I interferon genes [1]) of the same compound?
A: strong inducers; also recorded: up-regulation

Q: And the DLN size (draining lymph nodes; 50 μl of 6 mM s.c. foot pads, without antigen, wild type mice)?
A: visible increase

Q: What about the “Increase in total cell number in DLN in IFNαR knock-out mouse versus wild type” value (draining lymph nodes; IFNαR knock-out mouse, 24 hr) of the same compound?
A: greatly reduced

Q: What about the “Total cell number in DLN” value (draining lymph nodes; wild type mice, over a 7-day period) of the same compound?
A: steady increase

Q: What about the “CD69 expression in DLN T cells” value (CD69; IFNαR knock-out mice) of the same compound?
A: no CD69 upregulation

Q: What about the “CD69 expression in DLN T cells” value (CD69; [3]) of the same compound?
A: up-regulation of CD69 most strongly in T cells
